These results are taken from patent US10806794B2, “Protease inhibitors having enhanced features” (priority 2008, dated 2020).

“And” between values parts separate entries of the source, which are not always exact repeats. Equal entries are not always repeated. Where two headings read alike, the source gives them in different places.

Series [1] has as its system CEM-SS cells. Description: Pre-exposure assay: toxicity in CEM-SS cells. The method, then:
(§1) The effects of pre- and post-infection PI treatment on CEM-SS toxicity were assessed. […] Cell toxicity was monitored six days after infection using XTT reagent. In the post-exposure assay, test compounds were added to cells 0, 24, 48, or 72 h after HIV-1 infection, and cell viability was measured six days post-infection.

For series [2], the system named is CEM-SS cells. The experiment in a line: Post-exposure assay: toxicity in CEM-SS cells. The method, then:
as §1

The subject of the next series is HIV-1 virions. Description: Infectivity of HIV-1 virions from treated cells on naive CEM-SS cells. It is filed as cell-based. The method, then: In concert with p24 analysis, cell supernatants collected from cells exposed to test compounds at 8, 16, or 24 hours post-infection were used to infect naïve CEM-SS cells. Cell viability was measured six days post-infection as a measure of virus infectivity (Table 5).

In series [3] the test system is HIV-1RF. The experiment in a line: p24 levels after single high MOI HIV-1RF infection of CEM-SS cells, time of addition. It is filed as cell-based. As to conditions: 1 μM. The procedure: The cytoprotective effect against HIV of the PEG-protease inhibitor conjugates was evaluated during a single round of high multiplicity of infection (“MOI”) HIV-1 infection in CEM-SS cells. CEM-SS cells were incubated for one hour with a single high MOI dose of HIV-1RF. Cells were washed to remove free virus, then test compounds were added to cells at 0, 2, 4, 6, 8, 16, or 24 hours after HIV-1 infection. To monitor viral replication, cell supernatants were analyzed at 30 hours post-infection for levels of the HIV capsid protein p24 (FIG. 1). […] Nevirapine inhibited viral replication at 1 μM when added to cells up to four hours post-infection, and at 10 μM when added up to eight hours post-infection.

For series [4], the system named is HIV-1RF. Description: Post-exposure assay: compounds added after HIV-1 infection of CEM-SS cells, cell viability. It is filed as cell-based. As to conditions: Human immunodeficiency virus 1, CEM-SS. The procedure:
as §1

In series [5] the test system is HIV-1RF. The experiment in a line: Pre-exposure assay: CEM-SS cells treated before HIV-1RF infection, cell viability. It is filed as cell-based. As to conditions: for EC50: Human immunodeficiency virus 1, CEM-SS. The method, then: as §1
The nature of series [6]: Microsomal protein binding by equilibrium dialysis. It is filed as in vitro ADME. Conditions: human liver microsomes, read-out: Microsomal Protein Binding Fu ± SD. The method in brief:
(§2)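 Compound at 3 μM final in buffer with or without human liver microsomes, dialysed to equilibrium at 37 °C. Both sides quantified by LC-MS/MS to derive fraction unbound (Fu).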
(In equilibrium dialysis only unbound substance equilibrates across the membrane.)

A short description of series [7]: Metabolic stability in cryopreserved human hepatocytes. Conditions: human, hepatocytes. The procedure:
(§3) Metabolism of PI conjugates was investigated by monitoring the levels of unmetabolized parent compound following incubation with cryopreserved human or monkey hepatocytes. The use of whole hepatocytes rather than microsomes requires that the drugs cross the cell membrane to interact with intracellularly-localized metabolic enzymes, and thus provides the most relevant in vitro system for understanding overall metabolic stability of these compounds.
(§4) Test compounds (0.1 μM or 3 μM, as indicated) are incubated with cryopreserved human hepatocytes at a cell density of 0.5×10^6 viable cells/mL. […] Duplicate samples (50 μL) are removed from the incubation mixture at various timepoints up to four hours (for 0.1 μM test compound concentration), or one or two hours (for 3 μM test compound concentration), and the reaction is quenched by the addition of methanol containing internal standard (100 μL). The samples are centrifuged (2500 rpm at 4° C. for 20 min), and the supernatants at each time point pooled for cassette analysis by LC-MS/MS.

Series [8] in a line: Plasma protein binding by equilibrium dialysis, human plasma. Conditions: human plasma, 5 μM, fraction unbound; read-out: Plasma Protein Binding Fu ± SD. It is filed as in vitro ADME. The method in brief:
(§5)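 Test compound solutions (5 μM, final DMSO 0.5%) are made in buffer and in plasma of the relevant species. Plasma solution goes on one membrane side, plasma-free solution on the other. After 2 h at 37 °C, both sides are analysed by LC-MS/MS.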

For series [9], the system named is CEM-SS cells. Conditions: absence of viral infection. The method, then: To evaluate whether conjugated protease inhibitors retain the ability to protect against HIV-1 infection, CEM-SS cells infected with the RF strain of HIV-1 were treated with test compounds for six days, and then cell viability was monitored using the tetrazolium dye XTT. […] A value for Therapeutic Index (TI) was calculated as TC50/EC50.

For series [10], the target named is recombinant HIV-1 protease (Human immunodeficiency virus type 1 group M subtype B (isolate HXB2) (HIV-1), UniProt P04585). Description: Enzyme inhibition of purified HIV-1 protease (SensoLyte 520 HIV-Protease Assay Kit). It is filed as biochemical. As to conditions: read-out: IC50 ± SD. The procedure: Protease inhibitors (PI) are used to treat HIV infection by preventing viral assembly and maturation through the inhibition of HIV-1 protease activity. Biochemical assays were performed to evaluate the potential of PEG-PI conjugates to inhibit HIV-1 protease activity, relative to their respective PI parent molecules. Activity assays were performed at using the SensoLyte 520 HIV-Protease Assay Kit (Anaspec Inc., San Jose, Calif.) and recombinant HIV-1 protease. Protease activity was monitored by the formation of a fluorescent reporter product generated during HIV-1 protease-mediated digestion of a quenched, fluorimetric substrate containing the p17/p24 Pr^gag cleavage site.

Series [11] relates to human liver microsomal proteins. The experiment in a line: Microsomal protein binding by equilibrium dialysis. It is filed as in vitro ADME. As to conditions: human liver microsomes, 3 μM, fraction unbound. The method in brief: as §2
Series [12] can be described thus: Metabolic stability in human liver microsomes. Conditions: human liver microsomes, 3 μM. The procedure:
The human liver microsome-mediated biotransformation of PEG-PI compounds was determined by monitoring the loss of the substrate as a function of time. […] Test compounds (3 μM final concentration) were preincubated with pooled (male and female) human liver microsomes (0.5 mg/mL final protein concentration) in buffer (0.1M phosphate buffer, pH 7.4) at 37° C. Reactions were initiated by the addition of NADPH (1 mM final concentration), and allowed to continue for 0, 5, 15, 30, and 45 minutes. […] Sample supernatants are analyzed by liquid chromatography-tandem mass spectrometry.
A general note: Liver microsomes are vesicles of endoplasmic reticulum, rich in cytochrome P450 enzymes.

Series [13] has as its target T1, CYP3A4 (Homo sapiens (Human), UniProt P08684). Description: CYP450 inhibition in human liver microsomes: CYP3A4.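 Note: incubation at 37 °C started by adding 1 mM NADPH, with formation of the probe metabolite measured via LC-MS/MS or fluorescent detection.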
For another series, the system named is human hepatocytes. Description: Metabolic stability in cryopreserved human hepatocytes. Conditions: human hepatocytes, 3 uM, incubated up to one hour. The method, then: as §3, §4
For series [14], the target named is T1, CYP3A4. The experiment in a line: Metabolic stability in CYP3A4-expressing Bactosomes. It is filed as in vitro ADME. Conditions: 5 μM. The method, then: (§6) Compounds were evaluated for their propensity to act as substrates of individual human cytochrome P450 enzymes using a bacterial membrane preparation co-expressing human NADPH-cytochrome P450 reductase with either human CYP3A4 or CYP2D6 (Bactosomes™ Cypex, Ltd., Dundee, UK). In vitro metabolism studies using Bactosomes™ expressing individual human CYP isoforms monitor the extent to which a test compound is metabolized by a single CYP450 enzyme and allow identification of the CYP isoforms that may be responsible for the metabolism of a test compound. Timecourse analyses of test molecules (5 μM) with CYP2D6- or CYP3A4-expressing Bactosomes™ (100 pmol/mL) are performed in buffer (0.1 M phosphate, pH 7.4) in a final reaction volume of 25 μL. […] Reactions are terminated by the addition of methanol (50 μL) containing internal standard at 0, 5, 15, 30, and 45 minutes.

In another series the test system is human plasma proteins. Description: Plasma protein binding by equilibrium dialysis, human plasma. As to conditions: human plasma, 5 μM, fraction unbound. It is filed as in vitro ADME. The method in brief:
as §5

The next series deals with CYP2D6 (Homo sapiens (Human), UniProt P10635). Description: Metabolic stability in CYP2D6-expressing Bactosomes. Conditions: 5 μM. It is filed as in vitro ADME. The method, then: as §6
Chain of CYP2D6 (P10635 whole entry): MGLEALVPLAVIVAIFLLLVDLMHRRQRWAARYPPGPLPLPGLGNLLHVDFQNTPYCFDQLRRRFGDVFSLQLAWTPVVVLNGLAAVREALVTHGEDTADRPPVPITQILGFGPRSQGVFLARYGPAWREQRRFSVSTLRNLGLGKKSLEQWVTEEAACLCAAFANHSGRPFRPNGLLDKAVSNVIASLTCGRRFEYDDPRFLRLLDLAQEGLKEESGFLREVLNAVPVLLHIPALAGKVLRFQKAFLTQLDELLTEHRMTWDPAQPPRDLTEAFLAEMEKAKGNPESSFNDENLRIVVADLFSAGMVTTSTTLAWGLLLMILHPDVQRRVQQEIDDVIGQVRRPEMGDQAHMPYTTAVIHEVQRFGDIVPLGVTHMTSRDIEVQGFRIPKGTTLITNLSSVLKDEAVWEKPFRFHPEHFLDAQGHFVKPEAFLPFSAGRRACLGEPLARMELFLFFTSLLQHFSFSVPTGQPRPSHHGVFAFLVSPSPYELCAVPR
For another series, the system named is PBMCs. Description: Toxicity in PBMCs cultured without virus (XTT). The method, then:
(§7) Fresh human peripheral blood mononuclear cells (PBMCs) obtained from a commercial source were purified following centrifugation using a Ficoll-Hypaque density gradient. Viable cells were induced to proliferate in the presence of PHA-P and recombinant human IL-2 for 72 hours. […] Cell supernatant containing HIV-1 viral was incubated for 90 minutes at 37° C. with a reaction mixture containing EGTA, Triton X-100, Tris (pH 7.4), DTT, MgCl2, poly rA, oligo dT, and tritiated thymidine triphosphate (TTP). Incorporation of TTP into DNA was monitored by spotting the reaction mixture onto a DEAE filter mat, followed by washes with 5% phosphate buffer, distilled water, and 70% ethanol, and subsequent drying of the mat. […] TI was calculated as TC50/EC50.
On the technique in general: Tetrazolium dyes change colour on reduction, which living cells bring about.

Another series concerns HIV-1 HT/92/599. Description: HIV-1 reverse transcriptase activity after infection of fresh human PBMCs. It is filed as cell-based. Conditions: read-out: PBMC/HIV-1HT/92/599 EC50 ± SD; seven days, reverse transcriptase activity. The procedure:
as §7, with “mat. Radioactivity was measured using a Wallac 1450 Microbeta Trilux liquid scintillation counter using Opti-Fluor O. Test compound-associated toxicity was measured in PBMCs cultured for seven days in the absence of virus using XTT reagent.” for “mat.”

T1 sequence (P08684 whole entry): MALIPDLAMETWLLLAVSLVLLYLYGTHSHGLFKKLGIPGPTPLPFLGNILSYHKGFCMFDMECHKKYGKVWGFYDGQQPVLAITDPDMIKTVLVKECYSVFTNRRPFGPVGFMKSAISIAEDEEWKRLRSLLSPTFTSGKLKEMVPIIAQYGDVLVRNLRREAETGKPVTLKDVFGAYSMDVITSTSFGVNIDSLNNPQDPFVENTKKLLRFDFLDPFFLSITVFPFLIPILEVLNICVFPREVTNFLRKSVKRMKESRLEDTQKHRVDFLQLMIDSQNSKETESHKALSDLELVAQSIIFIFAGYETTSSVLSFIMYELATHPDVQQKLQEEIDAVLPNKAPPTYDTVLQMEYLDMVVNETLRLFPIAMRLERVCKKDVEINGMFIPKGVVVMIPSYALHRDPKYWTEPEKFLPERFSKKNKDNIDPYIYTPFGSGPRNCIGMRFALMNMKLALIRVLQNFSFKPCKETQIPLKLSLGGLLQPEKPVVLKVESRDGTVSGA

As to `Cc1ccnc2c1NC(=O)c1cccnc1N2C1CC1` [Nevirapine], the TC50 in the series with CEM-SS cells [1] (exposure 2 h pre-infection), in the series on CEM-SS cells [1] (exposure 8 h pre-infection), in the series with CEM-SS cells [1] (exposure 24 h pre-infection), in the series with CEM-SS cells [2] (drug addition 0 h post-infection), with CEM-SS cells [2] (drug addition 24 h post-infection) and with CEM-SS cells [2] (drug addition 48 h post-infection) was over 1000 nM throughout. Besides, the TC50 with CEM-SS cells [2] (drug addition 72 h post-infection) was over 1000 nM. For the same compound, the “Percent Infectivity of HIV-1 Virions in comparison to virus-alone control” value with HIV-1 virions (0.1 μM, added 8 h post-infection) turned out to be 100.0%; with HIV-1 virions (0.1 μM, added 16 h post-infection) it was 117.0%; in the series on HIV-1 virions (0.1 μM, added 24 h post-infection) it was 128.0%; with HIV-1 virions (1 μM, added 8 h post-infection) it was 100.0%; with HIV-1 virions (1 μM, added 16 h post-infection) it was 100.0%; in the series on HIV-1 virions (10 μM, added 8 h post-infection), 10.0%. Further, the “Percent Infectivity of HIV-1 Virions in comparison to virus-alone control” value with HIV-1 virions (10 μM, added 24 h post-infection) is given as 177.8%. For the same compound, the “time of addition up to which antiviral activity (reduced p24) was seen” value with HIV-1RF [3] is given as “up to four”. Also, the EC50 amounted to 5 nM in the series with HIV-1RF [4] (0 h); 10 nM in the series with HIV-1RF [4] (24 h); 50 nM in the series on HIV-1RF [4] (48 h); 200 nM with HIV-1RF [4] (72 h); 470 nM in the series on HIV-1RF [5] (2 h); 200 nM in the series with HIV-1RF [5] (8 h). In addition, in the series with HIV-1RF [5] (24 h), the EC50 is 640 nM. Moreover, the “EC50 values after pre-treatment of cells” value in the series on HIV-1RF [5] (in words) was “sub-micromolar”.

For orientation: hepatocyte CLint means the capacity of the preparation to metabolise the compound, expressed as a volume cleared per time. Read a high hepatocyte CLint as faster metabolism. The IC50 is the midpoint of a concentration-inhibition curve. For `CCC[C@@]1(CCc2ccccc2)CC(O)=C([C@H](CC)c2cccc(NS(=O)(=O)c3ccc(C(F)(F)F)cn3)c2)C(=O)O1` [Tipranavir, reference compound], the fraction unbound at 3 μM in [6] was 0.302 ± 0.0853. The compound also returned a hepatocyte CLint at 3 μM in series [7] of 0.111 ± 0.643 µL/min/1e6 cells. Moreover, the fraction unbound at 2 h, 5 μM in series [8] came to 0.00866 ± 0.0013. The “CEM-SS TC50 ± SD” value in the series with CEM-SS cells [9] was 30600 nM and 40700 nM. Besides, in series [10], the IC50 was 7.2 nM and 1.96 nM.

Regarding `COCCOCCOCCOC(=O)N[C@@H](C(=O)NC(Cc1ccccc1)[C@@H](O)CN(Cc1ccc(-c2ccccn2)cc1)NC(=O)[C@H](NC(=O)OCCOCCOCCOC)C(C)(C)C)C(C)(C)C` (stereo partly drawn) [di-mPEG3-Atazanavir], the “Microsomal Protein Binding Fu ± SD” value in series [11] was “highly unbound”. Moreover, the “CLint ± SEM” value in series [12] is listed as 190 ± 18.3 μL/min/mg protein; in the series on human hepatocytes, 3.46 ± 0.896 μL/min/10^6 cells. Moreover, the t1/2 in series [12] is 7.31 min. The IC50 on CYP3A4 [13] (read-out: CYP3A4 IC50 Midazolam, probe substrate midazolam) is over 50000 nM; on CYP3A4 [13] (read-out: CYP3A4 IC50 Testosterone, probe substrate testosterone), 23400 nM. Further, the “3A4 t1/2 ± SEM” value at CYP3A4 [14] stood at 1.6 ± 0.457 h. Moreover, the “Plasma Protein Binding Fu ± SD” value with human plasma proteins is on record as 0.376 ± 0.00639. Also, on CYP2D6, the “2D6 t1/2 ± SEM” value came to 2.18 ± 0.808 h. Moreover, in the series on PBMCs, the “PBMC TC50 ± SD” value is 146000 nM. Moreover, the EC50 with HIV-1 HT/92/599 came out at 390 ± 60 nM.
